Data taken from patent US20120095032A1, “METHODS FOR TREATING LEUKEMIA AND MYELODYSPLASTIC SYNDROME, AND METHODS FOR IDENTIFYING AGENTS FOR TREATING SAME” (Sanford-Burnham Medical Research Institute, priority 2007, published 2012).
Where a name gives a salt, the structure may show the parent alone.

Experiments:
HePTP [1] = biological target: T1, HePTP (Homo sapiens, UniProt P35236); assay: HePTP dose-response confirmation screening; assay type: biochemical; conditions: for IC50: 10 concentrations, 2-fold serial dilution, pNPP substrate; for n / nH (Hill coefficient): Hill coefficient of the dose-response curve
T1 sequence (P35236 1-360): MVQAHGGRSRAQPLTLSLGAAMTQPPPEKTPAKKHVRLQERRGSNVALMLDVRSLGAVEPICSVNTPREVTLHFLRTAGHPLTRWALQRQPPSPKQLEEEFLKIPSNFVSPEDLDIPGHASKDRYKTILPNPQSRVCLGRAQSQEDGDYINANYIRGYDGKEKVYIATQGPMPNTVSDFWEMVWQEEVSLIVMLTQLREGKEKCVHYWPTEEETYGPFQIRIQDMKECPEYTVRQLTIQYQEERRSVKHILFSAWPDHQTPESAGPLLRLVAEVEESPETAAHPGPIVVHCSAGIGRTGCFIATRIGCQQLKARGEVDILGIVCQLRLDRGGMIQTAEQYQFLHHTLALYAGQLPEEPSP
Excerpt: (§1) The following assay can be conducted manually or can be carried out by a robotic station.
(§2) Compounds are then serially diluted in 100% DMSO, and then diluted with water to 10% final DMSO concentration.
(§3) The primary screening actives can then proceed to the dose-response confirmation stage.
* n represents the Hill coefficient. This coefficient is derived from the Hill equation which has the formula: […]
wherein θ is the fraction of ligand binding sites filled, L is the inhibitor concentration, Ka is the inhibitor concentration producing half occupation of the ligand binding sites, and n is the Hill coefficient.

HePTP [2] = biological target: T1, HePTP; assay: HePTP HTS primary screen (colorimetric pNPP / Biomol Green); assay type: biochemical; conditions: 20 μM compound; for inhibition at 20 µM: read-out: % Inhib. at 20 μM
Excerpt: as §1
For this assay, HePTP catalyzes the following reaction:
wherein p-nitrophenyl phosphate serves as a substrate and is cleaved to form p-nitrophenol and phosphate. The liberated phosphate complexes with the Biomol Green™ reagent to provide a quantitative colorimetric value for the amount of substrate cleaved.
as §2, §3

IC50 (HePTP [1]) | n / nH (Hill coefficient) (HePTP [1]) | inhibition at 20 µM (HePTP [2]) | % Inhib. at 20 μM (HePTP [2]) | Structure (SMILES)
0.99 µM | 1.02 | 54.1% |  | O=C(c1ccc(=O)oc1)N1CCOCC1
1.79 µM | 7.56 | 102% |  | O=C(O)c1ccccc1-c1ccc(/C=c2\sc3nc4cc(Br)cnc4n3c2=O)o1
15.1 µM | 1.27 | 79.4% |  | CCC1=NC2Sc3ccccc3C(=O)C2C(=O)N1Cc1ccco1 (centres unmarked)
0.41 µM | 2.28 | 62.5% |  | CSc1nc(N(CCO)CCO)c2sc3nc(-c4ccco4)c4c(c3c2n1)CCC4
6.86 µM | 2.17 | 104% |  | COc1ccc(Cn2c(C)nc3c(c2=O)c2nc4ccccc4nc2n3Cc2ccco2)cc1
1.69 µM | 3.77 | 86% |  | CCn1c(SC(C)C(=O)O)nc2c(c1=O)C1=C(CCC1)C2 (centres unmarked)
1.29 µM | 4.48 | 102% |  | CCn1c(SCC(=O)O)nc2c(c1=O)C1=C(CCC1)C2
2.18 µM | 2.73 | 99.2% |  | COc1ccc2c(c1)=CC(=C1N=C(c3ccc(F)cc3)ON1)C(=O)N=2 (stereo in doubt) [(3Z)-3-[5-(4-fluorophenyl)-1,2,4-oxadiazol-3-ylidene]-6-methoxy-quinolin-2-one]
4.23 µM | 4.29 | 77.1% |  | COc1ccc2c(c1)=CC(=C1N=C(c3ccccc3)ON1)C(=O)N=2 (stereo in doubt) [(3Z)-6-methoxy-3-(5-phenyl-1,2,4-oxadiazol-3-ylidene)quinolin-2-one]
6.96 µM | 0.99 | 61.3% |  | N#Cc1c(N2CCCC2)nc(N)c2c(N)nc(N3CCCC3)cc12 [1,8-Diamino-3,6-dipyrrolidin-1-yl-2,7-naphthyridine-4-carbonitrile]
1.31 µM | 1.67 | 84.9% |  | O=C1CC(=O)N(Cc2ccco2)C(=O)N1 [1-(2-Furylmethyl)-1,3-diazinane-2,4,6-trione]
1.14 µM | 2.26 | 74.1% |  | c1coc(-c2nc(-c3ccco3)c(-c3ccco3)nc2-c2ccco2)c1 [2,3,5,6-tetrakis(2-furyl)pyrazine]
1.17 µM | 2.23 | 93.1% |  | Cc1c(N2C(=O)c3ccc4c5c(ccc(c35)C2=O)CC4)c(=O)n(-c2ccccc2)n1C [2-(1,5-Dimethyl-3-oxo-2-phenyl-2,3-dihydro-1H-pyrazol-4-yl)-6,7-dihydro-1H-indeno[6,7,1-def]isoquinoline-1,3(2H)-dione]
0.42 µM |  | 102% |  | Cc1ccc(C)n1C(Cc1ccccc1)C(=O)O (centres unmarked) [2-(2,5-Dimethylpyrrol-1-yl)-3-phenyl-propanoic acid]
2.3 µM | 1.79 | 100% |  | O=C(O)C(O)c1ccco1 (centres unmarked) [2-(2-Furyl)-2-hydroxy-acetic acid]
2.74 µM | 1.32 | 53.9% |  | Cc1cccc(Nc2nn3c(=O)c4ccccc4nc3s2)c1 [2-(3-Methylphenylamino)-5H-[1,3,4]thiadiazolo[2,3-b]quinazolin-5-one]
1.17 µM | 3.7 | 57.2% |  | COc1ccc(N2Cc3cccc(C(=O)O)c3C2=O)cc1 [2-(4-Methoxyphenyl)-3-oxo-1H-isoindole-4-carboxylic acid]
4.97 µM | 2.07 | 50.7% |  | O=C(COC(=O)c1cccc(S(=O)(=O)N2CCN(c3ccccc3)CC2)c1)NCc1ccco1 [2-Furylmethylcarbamoylmethyl 3-(4-phenylpiperazin-1-yl)sulfonylbenzoate]
1.3 µM | 2.59 | 102% |  | Cc1ccc(C)n1-c1cccc(C(=O)O)c1 [3-(2,5-Dimethylpyrrol-1-yl)benzoic acid]
68.3 µM | 1.24 | 103% |  | O=C(CCS(=O)(=O)c1ccc(Br)cc1)NCc1cccs1 [3-(4-Bromophenyl)sulfonyl-N-(thiophen-2-ylmethyl)propanamide]
2.74 µM | 1.32 | 53.9% |  | c1ccc(CSc2nnc(-c3ccco3)c(-c3ccco3)n2)cc1 [3-Benzylsulfanyl-5,6-bis(2-furyl)-1,2,4-triazine]
1.4 µM | 1.45 | 58.1% |  | O=C(O)c1cccc(-n2cccc2/C=N/O)c1 [3-[2-(Hydroxyiminomethyl)pyrrol-1-yl]benzoic acid]
0.42 µM | 2.5 | 95.3% |  | COc1ccc(Br)cc1/C=c1\sc2nc(-c3ccco3)nn2c1=O [3-[(5-Bromo-2-methoxy-phenyl)methylidene]-7-(2-furyl)-4-thia-1,6,8-triazabicyclo[3.3.0]octa-5,7-dien-2-one]
10.6 µM | 4.06 |  | 97.5% | NC(=O)c1c(NC(=O)CSc2nnc(-c3ccco3)n2-c2ccccc2)sc2c1CCC2 [3-[[2-[[5-(2-furyl)-4-phenyl-1,2,4-triazol-3 - yl]sulfanyl]acetyl]amino]-4-thiabicyclo[3.3.0]octa-2,9-diene-2-carboxamide]
0.4 µM | 2.66 | 102% |  | CC1(C)CCCN(C(=O)c2coc(=O)c(Br)c2)C1 [3-bromo-5-(3,3-dimethylpiperidine-1-carbonyl)pyran-2-one]
19.6 µM | 0.76 | 64.2% |  | O=C(O)c1cc(O)c2c(c1)C(=O)c1cccc(O)c1C2=O [4,5-Dihydroxy-9,10-dioxo-anthracene-2-carboxylic acid]
21.6 µM | 2.83 | 50.5% |  | Cc1cc(C)n(-c2nc(Nc3ccccc3)nc(-n3nc(C)cc3C)n2)n1 [4,6-bis(3,5-Dimethylpyrazol-1-yl)-N-phenyl-1,3,5-triazin-2-amine]
0.7 µM | 2.09 | 103% |  | Cc1cc(C(=O)O)ccc1-n1c(C)ccc1C [4-(2,5-Dimethylpyrrol-1-yl)-3-methyl-benzoic acid]
1.15 µM | 2.13 | 67.2% |  | O=C1Nc2ccccc2SC(c2ccccc2)C1O (centres unmarked) [4-Hydroxy-3-phenyl-2-thia-6-azabicyclo[5.4.0]undeca-7,9,11-trien-5-one]
78.4 µM | 2.71 | 64.3% |  | CN(C)c1ccc(-c2nn3c(-c4ccc(Cl)cc4Cl)nnc3s2)cc1 [4-[2-(2,4-Dichlorophenyl)-6-thia-1,3,4,8-tetrazabicyclo[3.3.0]octa-2,4,7-trien-7-yl]-N,N-dimethyl-aniline]

Structure (SMILES) | IC50 (HePTP [1]) | n / nH (Hill coefficient) (HePTP [1]) | inhibition at 20 µM (HePTP [2]) | % Inhib. at 20 μM (HePTP [2])
COc1cccc(C(=O)NC2CC3CCCC(C2)N3CC(=O)Nc2ccccc2)c1 (centres unmarked) [3-methoxy-N-[9-(phenylcarbamoylmethyl)-9-azabicyclo[3.3.1]non-7-yl]benzamide hydrochloride] | 4.67 µM | 4.22 | 103% | 
